Reference: patent US20220315895A1, “METHODS OF MAKING OLIGOPOTENT AND UNIPOTENT PRECURSORS” (Transfusion Health, LLC, priority 2019, published 2022)

Experiments:
[1] = tested on: CD34+ cells from mobilized peripheral blood; assay: Long-term expansion of HSCs, mobilized peripheral blood (Example 36); format: cell-based, human; details: Compound 1.010 8 μM, up to 21 days, from day 1
Experimental: CD34+ cells from mobilized peripheral blood were purchased from STEMCELL Technologies. The blood from volunteer donors was mobilized using G-CSF. Volunteers were administered a maximum of 10 μg/kg/day of granulocyte colony-stimulating factor (G-CSF) for 3-5 days prior to collection. Primary human CD34+ cells were isolated from mobilized peripheral blood leukapheresis samples using positive immunomagnetic separation techniques.
Cryopreserved CD34+ cell samples from each source were thawed and gradually brought to room temperature. Samples were washed then placed in overnight culture in StemSpan with 100 ng/ml each of FLT3L, TPO, SCF, and TL-6.
Cultures were incubated at 3% oxygen (controlled by nitrogen) and 5% CO2.
Twenty-four hours later (day 1), cells were counted and immunophenotyped (flow cytometry on an Invitrogen Attune N×T cytometer). The media components and concentrations used for the compounds tested are described in Table 7. Culture conditions also included an antibiotic solution that includes penicillin, streptomycin, and amphotericin B to avoid contamination. Approximately 1000 cells were added to each of the cord blood and mobilized peripheral blood flasks (5 ml total volume) or wells of a 96-well plate (200 μl total volume). Approximately 2000 cells were added to each of the non-mobilized peripheral blood flasks (5 ml total volume) or wells of a 96-well plate (200 μl total volume). Exact cell numbers dispensed per condition were quantified for later calculations of fold change from day 1.
Wells were analyzed at days 7 and 10, flasks were analyzed at 14 and 21 days of incubation. Cell numbers and phenotypes were quantified with flow cytometry. At day 14, fresh conditions for flasks were prepared as on day 1, and cells were split 1:20 into the new flasks. An additional seven days later (day 21 of culture), cell numbers and phenotypes were again quantified with flow cytometry. Cell numbers calculated at day 21 account for the passaging of the cells.
Conditions in 96-well plates were prepared in quadruplicate; conditions in flasks were prepared in duplicate. On the above-indicated number of days in culture, cells from wells or flasks were collected and phenotypes were analyzed (flow cytometry on an Invitrogen Attune N×T cytometer).

CD56+ NK lineage cells = assay: NK-cell Maturation Culture (Example 41); format: cell-based, human; details: for % Mature cells: CD3−/CD19−/CD56+ of Live / % Mature cells: CD16+ of Live/CD3−/CD19−/CD56+ / % Mature cells: CD94+ of Live/CD3−/CD19−/CD56+ / % Mature cells: CD161+ of Live/CD3−/CD19−: NK, +Formula I-expanded CD34+ cells
Experimental: Following 14 days in Lymphoid Progenitor Differentiation Cultures, cells were placed into T- and NK-cell Maturation Cultures.
For NK-cell Maturation Cultures, cells from L Diff Cultures were plated at 25,000 cells per well in TC-treated 48-well plates with 250 μl of NK-cell Differentiation Medium, comprising StemSpan SFEM II medium with StemSpan NK Cell Differentiation Supplement and UM171 (STEMCELL Technologies), prepared according to the manufacturer's instructions, except substituting UM171 at 100 nM for the 1 μM UM729 called for in the protocol.
Following 4 days of culture, NK- and T-cell Maturation Cultures' medias were replenished by adding an equal volume of the same culture media added on day 14. At days 21 and 25 of NK- or T-cell Maturation Cultures, half-media changes were performed by removing half of the total volume of media without disturbing cells and adding media freshly prepared as on day 14.
Following 7 and 14 days in NK- and T-cell Maturation Culture (21 and 28 days from initiation of Lymphoid Differentiation Culture, respectively), cells were stained with antibodies to CD56, CD3, CD161, CD94, and CD16 and analyzed via flow cytometry to quantify T and NK lineage phenotypes.
“Adult Peripheral Blood Unit Equivalents per CBU” was calculated by multiplying each condition's Scaled Output (per CD34+ cell) by 10^6, a conservative estimate of the number of CD34+ cells in an umbilical cord blood unit, then dividing that quantity by the number of CD56+, CD3+ or CD8+ cells typically found in a unit of donated adult peripheral blood: 5×10^7 (CD56+), 10^9 (CD3+) or 3×10^8, according to Invitrogen (https://assets.thermofisher.com/TFS-Assets/LSG/brochures/I-076357%20cell%20count%20table%20topp_WEB.pdf).

CC(C)(C)C(=O)Nc1ccc2c(c1)C(O)c1ccccc1-2 (centres unmarked) [Compound 1.010]
fold expansion of CD34+ cells [1]: greater than 20 fold | fold expansion of CD34+/CD133+ cells [1]: greater than 40 fold | fold expansion of CD34+/CD133+/CD90+ cells [1]: greater than 60 fold | fold expansion of CD34+/CD133+/CD90+/CD38low/− cells [1]: greater than 60 fold | fold expansion of CD34+/CD133+/CD90+/CD45RA− cells [1]: greater than 30 fold | CD56+ NK cells, of total live cells (CD56+ NK lineage cells; CD34+ cells first expanded for 14 days in +Formula I conditions): 93% | % Mature cells: CD3−/CD19−/CD56+ of Live (CD56+ NK lineage cells; Lymphoid Diff day 21): 91% | % Mature cells: CD16+ of Live/CD3−/CD19−/CD56+ (CD56+ NK lineage cells; Lymphoid Diff day 21): 31% | % Mature cells: CD94+ of Live/CD3−/CD19−/CD56+ (CD56+ NK lineage cells; Lymphoid Diff day 21): 7.8% | % Mature cells: CD161+ of Live/CD3−/CD19− (CD56+ NK lineage cells; Lymphoid Diff day 21): 81% | % Mature cells: CD3−/CD19−/CD56+ of Live (CD56+ NK lineage cells; Lymphoid Diff day 28): 95% | % Mature cells: CD16+ of Live/CD3−/CD19−/CD56+ (CD56+ NK lineage cells; Lymphoid Diff day 28): 16% | % Mature cells: CD94+ of Live/CD3−/CD19−/CD56+ (CD56+ NK lineage cells; Lymphoid Diff day 28): 3.5% | % Mature cells: CD161+ of Live/CD3−/CD19− (CD56+ NK lineage cells; Lymphoid Diff day 28): 89%
